Assay results from patent US11439615B2, “Lipoxin and lipoxin analogue mediated neuroprotection and treatments” (University Health Network, priority 2017, dated 2022).

Assays:
primary cortical neurons = experiment: Primary cortical neurons under paraquat oxidative stress, neuron number; type: cell-based; details: n=5
Source text: Quantification of neuron number following oxidative stress from the redox cycling compound paraquat in primary cortical neurons.

HT22 cells [1] = experiment: Glutamate challenge of HT22 neuronal cells, viability; type: cell-based; details: for protective activity of related molecules: up to 1 μM, glutamate challenged HT22 cells
Description: An in vitro assay to recapitulate key aspects of the acute KA model was established. In this case, unconcentrated ACM was applied to the glutamate sensitive neuronal cell line HT22 (66, 67). Glutamate challenge of 5 mM was titrated to induce 60-80% cell death (ie: 20-40% survival). […] The media was concentrated for proteomic analyses.
LXA4 and LXB4 promote direct neuroprotective signaling. To the inventor's knowledge, a role for lipoxins as direct neuroprotective or neurotrophic factors has not been reported. Although their established anti-inflammatory actions extend to the CNS (29-32). However, it was hypothesized they may have indirect protective effects. In order to test whether the protective activity was direct or indirect, LXA4 or LXB4 was applied to neuronal cells in an established in vitro assay.
There is no established receptor for LXB4. However, LXB4 shares structural homology with LXA4 and the DHA-derived resolving D2 (RvD2), which mediate their actions via FPR2 or GPR18 (74), respectively. Therefore, it was assessed whether specific receptor antagonists for FPR2 or GPR18 could block LXB4 mediated protection.
As shown in FIG. 14 lipoxin neuroprotection is dose responsive. Dose responses were generated for LXA4 (open circles) and LXB4 (closed circles) in HT22 cells exposed to glutamate stress, followed by nonlinear regression analyses.

HT22 cells [2] = experiment: Mitosox mitochondrial oxidative stress in glutamate challenged HT22 cells; type: cell-based; details: 1 μM, HT22 cells challenged with glutamate, vs vehicle
Description: HT22 cells challenged with glutamate were then assayed for mitochondrial oxidative stress using the Mitosox reagent, in combination with 1 μM LXA4, LXB4, and the LXA4 receptor ALX/FPR2 agonists Quinc-1 and Mmk-1.

[3] = system: retinal ganglion cell neurons (RGCs); experiment: Mouse acute retinal insult model (intravitreal kainic acid), RGC survival / GCL apoptosis; type: in vivo
Description: Male C57BLL/6 mice, 4-6 weeks of age, were purchased from Taconic or Jackson labs. All experimental protocols were approved by the UHN and UC Berkeley ACUC in accordance with applicable regulations. Mice were anesthetized by intraperitoneal injection of ketamine/xylazine. Intravitreal injections with 10 mM kainic acid (KA) were performed as previously described (45). Briefly, a 30-gauge needle was inserted tangentially into the vitreous and replaced with a Hamilton syringe to inject a volume of 2 μL, followed by application of ophthalmic antibiotic ointment (BNP, Vetoquinol). In some experiments, 10× concentrated ACM or test compounds were injected intravitreally one hour prior to the KA injection in concentrations as follows: LXA4 and LXB4 at 10 μM, Zileuton at 2 μg/ul, and WRW4 at 15 μM, all dissolved in PBS. Mice were euthanized by CO2 asphyxiation 18 hours post KA treatment and the eyes fixed in 4% paraformaldehyde. In all experiments n refers to the number of animals tested.
To quantify the extent of apoptosis, a well-established method was used to count the number of TUNEL-positive nuclei in the ganglion cell layer (GCL) and expressed it as a fraction of the total GCL nuclei (50-54). TUNEL labeling was performed according to the manufacturer's instructions (DeadEnd; Promega). Briefly, cryostat sections were fixed with 4% PFA for 5 minutes and washed in PBS. Equilibration buffer was added, and rTdT reaction mix was applied to each slide and incubated at 37° C. for 60 min. Following the rTdT reaction, slides were washed in 2×SSC and PBS and finally mounted with glycerol-based medium. For RGC survival, RBPMS-positive cells in the GCL were counted and expressed as a fraction of GCL nuclei. For each eye, at least five central retinal sections were analyzed at the level of the optic nerve stretching to each ora serrata, and the results averaged, as previously described (42).
In order to test the influence of the transplanted cells on inner retinal pathology, RA's were transplanted as above. After 16 days retinas were challenged with an acute metabolic injury by injection of kainic acid (KA). […]
Retinal astrocyte neuroprotection is mediated through secreted factors that include a small molecule component enriched in LXA4 and LXB4. […] This time, survival of RGCs was specifically assessed by probing for the selective marker RBPMS, along with complementary TUNEL staining, and quantified as previously. As expected, extensive RGC loss was detected in KA challenged eyes injected with cell-free control media incubated under the same conditions as ACM (FIG. 2A). […]

## CCCCC[C@H](O)/C=C/C=C\C/C=C\C/C=C\CCCC(=O)O [15-HETE, reference compound]
Primary cortical neurons
  neuron number following oxidative stress from paraquat: no protection
HT22 cells [1]
  protective activity of related molecules: no protective activity

## C=C(C)[C@@H]1CCC(C)=C[C@H]1c1c(OC)cc(C)cc1OC [O-1918, reference compound]
HT22 cells [1]; LXB4 at 500 nM, increasing μM concentrations of antagonist
  block of LXB4 protective activity by receptor antagonist: did not block LXB4 protective activity

## CCCCOc1ccc(C(=O)NN2C(=O)c3ccccc3NC2c2ccc(OC)cc2)cc1 (centres unmarked) [Quinc-1, reference compound]
HT22 cells [2]
  mitochondrial oxidative stress (Mitosox): reduce mitochondrial oxidative stress

## CC/C=C\C[C@H](O)[C@H](O)/C=C/C=C/C=C\C=C\[C@@H](O)C/C=C\CCC(=O)O [RvD2, reference compound]
Primary cortical neurons
  neuron number following oxidative stress from paraquat: no protection
HT22 cells [1]
  protective activity of related molecules: no protective activity

## CC(c1cc2ccccc2s1)N(O)C(N)=O (centres unmarked) [Zileuton, reference compound]
[3]; intravitreal inhibitor prior to KA, Zileuton 10 μM or 2 μg/ul, WRW4 15 μM
  exacerbation of RGC loss in response to KA challenge compared to vehicle: 60%
[3]; uninjured (naive) eyes, intravitreal, no KA, RBPMS counts
  effect on RGC numbers, drug alone: no effect
